Assay results: patent US20120029187A1, “HALOALKYLSULFONANILIDE DERIVATIVE” (Nissan Chemical Industries, Ltd., priority 2009, published 2012)

How the values were obtained:
Assay type in all cases: in vivo
[1] = test system: barnyardgrass; assay: Test Example 1: herbicidal effects in preemergence treatment under submerged conditions; conditions: dose 2.52 g/a
Outline: (§1)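 Alluvial soil flooded to 4 cm depth; barnyardgrass, bulrush and ducksalad sown and 2.5-leaf rice seedlings transplanted. Same day, water-diluted emulsifiable concentrates applied to the water surface at set doses (g/a). Kept at 25–30 °C in greenhouse; effects scored 0–5 by mortality after three weeks.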

[2] = test system: bulrush; assay: as above; conditions: dose 2.52 g/a
Outline: as §1

[3] = test system: ducksalad; assay: as above; conditions: dose 2.52 g/a
Outline: as §1

[4] = test system: transplanted rice; assay: Test Example 1: preemergence treatment under submerged conditions, effect on crop; conditions: dose 2.52 g/a
Outline: as §1

[5] = test system: barnyardgrass; assay: Test Example 2: herbicidal effects during the vegetation period under submerged conditions; conditions: treatment during the vegetation period under submerged conditions; dose 2.52 g/a
Outline: (§2)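 Barnyardgrass, bulrush and ducksalad were co-sown in alluvial soil flooded to 4 cm and grown in a greenhouse at 25 to 30° C. At the 1- or 2-leaf stage, water-diluted emulsifiable concentrates went onto the water surface at set doses (g/a). Herbicidal effect was scored three weeks later on a graded scale.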

[6] = test system: bulrush; assay: as above; conditions: treatment during the vegetation period under submerged conditions; dose 2.52 g/a
Outline: as §2

[7] = test system: ducksalad; assay: as above; conditions: treatment during the vegetation period under submerged conditions; dose 2.52 g/a
Outline: as §2

[8] = test system: Italian ryegrass; assay: Test Example 3: herbicidal effects in soil treatment; conditions: dose 3.2 g/a
Outline: (§3)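 Seeds were sown in sterilized diluvial soil and covered with about 1.5 cm of soil. Compounds, formulated as emulsifiable concentrates and diluted with water, were sprayed evenly over the soil surface at set doses in g/a. Herbicidal effect was scored on a rating scale three weeks later.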

[9] = test system: barnyardgrass; assay: as above; conditions: dose 3.2 g/a
Outline: as §3

[10] = test system: common chickweed; assay: as above; conditions: dose 3.2 g/a
Outline: as §3

[11] = test system: common lambsquater; assay: as above; conditions: dose 3.2 g/a
Outline: as §3

[12] = test system: common ragweed; assay: as above; conditions: dose 3.2 g/a
Outline: as §3

[13] = test system: giant foxtail; assay: as above; conditions: dose 3.2 g/a
Outline: as §3

[14] = test system: large crabgrass; assay: as above; conditions: dose 3.2 g/a
Outline: as §3

[15] = test system: posumbu knotweed; assay: as above; conditions: dose 3.2 g/a
Outline: as §3

[16] = test system: redroot pigweed; assay: as above; conditions: dose 3.2 g/a
Outline: as §3

[17] = test system: velvetleaf; assay: as above; conditions: dose 3.2 g/a
Outline: as §3

[18] = test system: water foxtail; assay: as above; conditions: dose 3.2 g/a
Outline: as §3

[19] = test system: Italian ryegrass; assay: Test Example 4: herbicidal effect in foliage treatment; conditions: dose 3.2 g/a, three weeks after application
Outline: (§4)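 Seeds sown in sterilized diluvial soil under ~1.5 cm soil cover and grown 14 days in a greenhouse at 25 to 30° C. Emulsifiable concentrates diluted with water were then sprayed uniformly on foliage at predetermined doses (g/a). Herbicidal effect was scored three weeks after application on a graded evaluation scale.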

[20] = test system: barnyardgrass; assay: as above; conditions: dose 3.2 g/a, three weeks after application
Outline: as §4

[21] = test system: beadstraw; assay: as above; conditions: dose 3.2 g/a, three weeks after application
Outline: as §4

[22] = test system: common chickweed; assay: as above; conditions: dose 3.2 g/a, three weeks after application
Outline: as §4

[23] = test system: common lambsquater; assay: as above; conditions: dose 3.2 g/a, three weeks after application
Outline: as §4

[24] = test system: common ragweed; assay: as above; conditions: dose 3.2 g/a, three weeks after application
Outline: as §4

[25] = test system: giant foxtail; assay: as above; conditions: dose 3.2 g/a, three weeks after application
Outline: as §4

[26] = test system: large crabgrass; assay: as above; conditions: dose 3.2 g/a, three weeks after application
Outline: as §4

[27] = test system: posumbu knotweed; assay: as above; conditions: dose 3.2 g/a, three weeks after application
Outline: as §4

[28] = test system: redroot pigweed; assay: as above; conditions: dose 3.2 g/a, three weeks after application
Outline: as §4

[29] = test system: velvetleaf; assay: as above; conditions: dose 3.2 g/a, three weeks after application
Outline: as §4

[30] = test system: water foxtail; assay: as above; conditions: dose 3.2 g/a, three weeks after application
Outline: as §4

| SMILES | A: barnyardgrass, herbicidal effect (evaluation scale 0-5) [1] | B: bulrush, herbicidal effect (evaluation scale 0-5) [2] | C: ducksalad, herbicidal effect (evaluation scale 0-5) [3] | a: transplanted rice, effect on crop (evaluation scale 0-5) [4] | A: barnyardgrass, herbicidal effect (evaluation scale 0-5) [5] | B: bulrush, herbicidal effect (evaluation scale 0-5) [6] | C: ducksalad, herbicidal effect (evaluation scale 0-5) [7] | H: Italian ryegrass, herbicidal effect (evaluation scale 0-5) [8] | A: barnyardgrass, herbicidal effect (evaluation scale 0-5) [9] | N: common chickweed, herbicidal effect (evaluation scale 0-5) [10] | L: common lambsquater, herbicidal effect (evaluation scale 0-5) [11] | J: common ragweed, herbicidal effect (evaluation scale 0-5) [12] | E: giant foxtail, herbicidal effect (evaluation scale 0-5) [13] | D: large crabgrass, herbicidal effect (evaluation scale 0-5) [14] | M: posumbu knotweed, herbicidal effect (evaluation scale 0-5) [15] | K: redroot pigweed, herbicidal effect (evaluation scale 0-5) [16] | I: velvetleaf, herbicidal effect (evaluation scale 0-5) [17] | G: water foxtail, herbicidal effect (evaluation scale 0-5) [18] | H: Italian ryegrass, herbicidal effect [19] | A: barnyardgrass, herbicidal effect [20] | other results |
| --- | --- | --- | --- | --- | --- | --- | --- | --- | --- | --- | --- | --- | --- | --- | --- | --- | --- | --- | --- | --- | --- |
| COCC1(C)CC(=O)N(Cc2ccccc2NS(=O)(=O)C(F)(F)F)CO1 (stereo not drawn) [II-54] | 5 (mortality of 90% or above (nearly complete death)) | 5 (mortality of 90% or above (nearly complete death)) | 5 (mortality of 90% or above (nearly complete death)) | 0 (mortality of less than 5% (almost ineffective)) | 5 (mortality of 90% or above (nearly complete death)) | 5 (mortality of 90% or above (nearly complete death)) | 5 (mortality of 90% or above (nearly complete death)) | 5 (mortality of 90% or above (nearly complete death)) | 5 (mortality of 90% or above (nearly complete death)) | 5 (mortality of 90% or above (nearly complete death)) | 3 (mortality of at least 40% and less than 70%) | 4 (mortality of at least 70% and less than 90%) | 5 (mortality of 90% or above (nearly complete death)) | 5 (mortality of 90% or above (nearly complete death)) | 5 (mortality of 90% or above (nearly complete death)) | 3 (mortality of at least 40% and less than 70%) | 5 (mortality of 90% or above (nearly complete death)) | 5 (mortality of 90% or above (nearly complete death)) | 5 (mortality of 90% or above (nearly complete death)) | 5 (mortality of 90% or above (nearly complete death)) | O: beadstraw, herbicidal effect [21]: 4 (mortality of at least 70% and less than 90%); N: common chickweed, herbicidal effect [22]: 4 (mortality of at least 70% and less than 90%); L: common lambsquater, herbicidal effect [23]: 2 (mortality of at least 20% and less than 40%); J: common ragweed, herbicidal effect [24]: 4 (mortality of at least 70% and less than 90%); E: giant foxtail, herbicidal effect [25]: 5 (mortality of 90% or above (nearly complete death)); D: large crabgrass, herbicidal effect [26]: 4 (mortality of at least 70% and less than 90%); M: posumbu knotweed, herbicidal effect [27]: 2 (mortality of at least 20% and less than 40%); K: redroot pigweed, herbicidal effect [28]: 1 (mortality of at least 5% and less than 20%); I: velvetleaf, herbicidal effect [29]: 5 (mortality of 90% or above (nearly complete death)); G: water foxtail, herbicidal effect [30]: 5 (mortality of 90% or above (nearly complete death)) |
| CCOC(=O)N(c1ccccc1CN1COC(C)(COC)CC1=O)S(=O)(=O)C(F)(F)F (stereo not drawn) [II-55] | 5 (mortality of 90% or above (nearly complete death)) | 5 (mortality of 90% or above (nearly complete death)) | 5 (mortality of 90% or above (nearly complete death)) | 0 (mortality of less than 5% (almost ineffective)) | 5 (mortality of 90% or above (nearly complete death)) | 5 (mortality of 90% or above (nearly complete death)) | 5 (mortality of 90% or above (nearly complete death)) | 5 (mortality of 90% or above (nearly complete death)) | 5 (mortality of 90% or above (nearly complete death)) | 5 (mortality of 90% or above (nearly complete death)) | 4 (mortality of at least 70% and less than 90%) | 5 (mortality of 90% or above (nearly complete death)) | 5 (mortality of 90% or above (nearly complete death)) | 5 (mortality of 90% or above (nearly complete death)) | 5 (mortality of 90% or above (nearly complete death)) | 3 (mortality of at least 40% and less than 70%) | 5 (mortality of 90% or above (nearly complete death)) | 5 (mortality of 90% or above (nearly complete death)) | 5 (mortality of 90% or above (nearly complete death)) | 5 (mortality of 90% or above (nearly complete death)) | O: beadstraw, herbicidal effect [21]: 4 (mortality of at least 70% and less than 90%); N: common chickweed, herbicidal effect [22]: 4 (mortality of at least 70% and less than 90%); L: common lambsquater, herbicidal effect [23]: 4 (mortality of at least 70% and less than 90%); J: common ragweed, herbicidal effect [24]: 4 (mortality of at least 70% and less than 90%); E: giant foxtail, herbicidal effect [25]: 5 (mortality of 90% or above (nearly complete death)); D: large crabgrass, herbicidal effect [26]: 4 (mortality of at least 70% and less than 90%); M: posumbu knotweed, herbicidal effect [27]: 3 (mortality of at least 40% and less than 70%); K: redroot pigweed, herbicidal effect [28]: 0 (mortality of less than 5% (almost ineffective)); I: velvetleaf, herbicidal effect [29]: 5 (mortality of 90% or above (nearly complete death)); G: water foxtail, herbicidal effect [30]: 5 (mortality of 90% or above (nearly complete death)) |
